# Laboratory results as given in the C3SDB collision cross section collection.
# Values joined by “and” are separate entries in the source; they are usually repeats but may differ in a detail not shown here. Equal values may be shown once.
# Conditions: [M+H-H2O]+; instrument: DT; stepped-field
row,collision cross section (N2),Compound
1,383.4 Å²,OCC1OC(OC2C(CO)OC(OC3C(CO)OC(OC4C(CO)OC(OC5C(CO)OC(OC6C(CO)OC(OC7C(CO)OC(OC8C(CO)OC(OC9C(CO)OC(OC%10C(CO)OC(O)C(O)C%10O)C(O)C9O)C(O)C8O)C(O)C7O)C(O)C6O)C(O)C5O)C(O)C4O)C(O)C3O)C(O)C2O)C(O)C(O)C1O (stereo not given) [(Hex)10]

# Same assay, conditions: [M+H]+; instrument: DT; stepped-field
row,collision cross section (N2),Compound
1,248.1 Å²,CCC(C)[C@H](NC(=O)[C@H](CC(N)=O)NC(=O)[C@H](C)N)C(=O)N[C@@H](CC(=O)O)C(=O)N[C@H](C(=O)N[C@@H](CCCCN)C(=O)O)C(C)C (stereo not given in full) [ANIDVK]
2,365.1 Å² and 390.3 Å²,OCC1OC(OC2C(CO)OC(OC3C(CO)OC(OC4C(CO)OC(OC5C(CO)OC(OC6C(CO)OC(OC7C(CO)OC(OC8C(CO)OC(OC9C(CO)OC(OC%10C(CO)OC(O)C(O)C%10O)C(O)C9O)C(O)C8O)C(O)C7O)C(O)C6O)C(O)C5O)C(O)C4O)C(O)C3O)C(O)C2O)C(O)C(O)C1O (stereo not given) [(Hex)10]
3,273.3 Å²,CC(C)C[C@H](NC(=O)[C@H](CC(=O)O)NC(=O)[C@H](C)NC(=O)[C@H](CC(C)C)NC(=O)[C@@H](N)Cc1c[nH]cn1)C(=O)N[C@@H](CO)C(=O)N[C@@H](CCCCN)C(=O)O [HLADLSK]
4,366.4 Å²,CC(C)[C@H](N)C(=O)N[C@@H](Cc1ccccc1)C(=O)N[C@@H](C)C(=O)N[C@@H](CC(=O)O)C(=O)N[C@@H](Cc1ccc(O)cc1)C(=O)N[C@@H](CCC(=O)O)C(=O)N[C@@H](CCC(=O)O)C(=O)N[C@@H](Cc1ccc(O)cc1)C(=O)N[C@H](C(=O)N[C@@H](CCCCN)C(=O)O)C(C)C [VFADYEEYVK]
5,275.6 Å²,CC(C)C[C@H](NC(=O)[C@H](CC(C)C)NC(=O)[C@H](CCC(N)=O)NC(=O)[C@H](CC(N)=O)NC(=O)[C@@H](N)CC(C)C)C(=O)N[C@@H](CCCNC(=N)N)C(=O)O [LNQLLR]
6,285.9 Å²,CCC(C)[C@H](N)C(=O)NCC(=O)N[C@@H](CC(=O)O)C(=O)N[C@@H](Cc1ccc(O)cc1)C(=O)N[C@@H](C)C(=O)NCC(=O)N[C@H](C(=O)N[C@@H](CCCCN)C(=O)O)C(C)CC (stereo not given in full) [IGDYAGIK]
7,261.8 Å² and 254 Å²,CC(C)C[C@H](NC(=O)[C@H](C)NC(=O)[C@H](CO)NC(=O)[C@@H](N)C(C)C)C(=O)N[C@@H](Cc1ccc(O)cc1)C(=O)N[C@@H](CCCCN)C(=O)O [VSALYK]
8,305.9 Å²,CC(C)C[C@H](NC(=O)[C@H](C)NC(=O)[C@@H](N)CCC(=O)O)C(=O)N[C@@H](CC(=O)O)C(=O)N[C@@H](Cc1ccccc1)C(=O)N[C@@H](Cc1ccccc1)C(=O)N[C@@H](C)C(=O)N[C@@H](CCCNC(=N)N)C(=O)O [EALDFFAR]
9,291.8 Å² and 277.8 Å²,CC(C)C[C@H](NC(=O)[C@H](C)NC(=O)[C@H](CC(=O)O)NC(=O)[C@H](C)NC(=O)[C@H](C)N)C(=O)N[C@@H](CC(C)C)C(=O)N[C@@H](CC(C)C)C(=O)N[C@@H](CCCCN)C(=O)O [AADALLLK]
10,254.1 Å²,CC(C)C[C@H](NC(=O)[C@H](CCC(=O)O)NC(=O)[C@@H](N)CCC(=O)O)C(=O)N[C@@H](Cc1ccccc1)C(=O)N[C@@H](CCCNC(=N)N)C(=O)O [EELFR]
11,205.9 Å²,NCC(=O)N[C@@H](CCCN=C(N)N)C(=O)NCC(=O)N[C@@H](CC(=O)O)C(=O)N[C@@H](CO)C(=O)O [GRGDS]
12,318.3 Å²,CCC(C)[C@H](NC(=O)[C@@H](N)C(C)C)C(=O)N[C@@H](Cc1ccccc1)C(=O)N[C@@H](CC(C)C)C(=O)N[C@@H](CCC(=O)O)C(=O)N[C@@H](CC(N)=O)C(=O)N[C@@H](Cc1ccc(O)cc1)C(=O)N[C@@H](CCCNC(=N)N)C(=O)O (stereo not given in full) [VIFLENYR]

# Same assay, conditions: [M+K]+; instrument: DT; stepped-field
row,collision cross section (N2),Compound
1,286.2 Å²,CCCCCCCCCCCCCCCCCCC(=O)O[C@H](COC(=O)CCCCCCCCCCCCCCC)COP(=O)(O)OCCN [PE(35:0)]
2,245.4 Å²,CCCCCCC=CCC=CCC(=O)OC[C@H](COP(=O)(O)OCCN)OC(=O)CC=CCC=CCCCCCC [PE(26:4)]
3,289 Å²,CC\C=C/C=C/C=C/C=C\CCCCCCCC(=O)O[C@H](COC(=O)CCCCCCCCCCCCCCC)COP(=O)([O-])OCC[N+](C)(C)C [PC(34:4)]
4,287.5 Å²,CCCCC/C=C\C/C=C\C/C=C\CCCCC(=O)O[C@H](COC(=O)CCCCCCC/C=C\CCCCC)COP(=O)([O-])OCC[N+](C)(C)C [PC(33:4)]
5,296.6 Å²,CC/C=C\C/C=C\C/C=C\C/C=C\C/C=C\C/C=C\CCC(=O)O[C@H](COC(=O)CCCCCCC/C=C\CCCCC)COP(=O)([O-])OCC[N+](C)(C)C [PC(37:7)]
6,305.8 Å²,CC(=O)N[C@H]1[C@H](OC2[C@@H](O)[C@H](O[C@@H]([C@H](O[C@@H]3O[C@@H](C)[C@@H](O)[C@@H](O)[C@@H]3O)[C@@H](O)C=O)[C@H](O)CO)O[C@H](CO)[C@@H]2O)O[C@H](CO)[C@@H](O[C@@H]2O[C@@H](C)[C@@H](O)[C@@H](O)[C@@H]2O)[C@@H]1O[C@@H]1O[C@H](CO)[C@H](O)[C@H](O)[C@H]1O (stereo not given in full) [Lacto-N-Difucohexaose II]
7,294.5 Å²,CC/C=C\C/C=C\C/C=C\C/C=C\CCCCC(=O)OC[C@H](COP(=O)([O-])OCC[N+](C)(C)C)OC(=O)CCCCCCCCCCCCCCCC [PC(35:4)]
8,293 Å²,CCCCCCC/C=C\CCCCCCCC(=O)O[C@H](COC(=O)CCCCCCCCC/C=C\CCCCCCCC)COP(=O)(O)OC[C@H](N)C(=O)O [PS(37:2)]
9,248.2 Å²,CC(=O)NC1C(OC2C(O)C(CO)OC(OC3C(CO)OC(O)C(O)C3O)C2O)OC(CO)C(O)C1OC1OC(CO)C(O)C(O)C1O (stereo not given) [HexNAc-(Hex)3]
10,293.8 Å²,CCCC/C=C\C/C=C\CCCCCCCC(=O)OC[C@H](COP(=O)([O-])OCC[N+](C)(C)C)OC(=O)CCCC/C=C\C/C=C\C/C=C\CCCCC [PC(35:5)]
11,299 Å²,CCCCC/C=C\C/C=C\C/C=C\C/C=C\CCCCCC(=O)O[C@H](COC(=O)CCCCCCC/C=C\CCCCC)COP(=O)([O-])OCC[N+](C)(C)C [PC(37:5)]
12,288.9 Å²,CCCCC/C=C\C/C=C\C/C=C\CCCCC(=O)O[C@H](COC(=O)CCCCCCCCCCCCC)COP(=O)([O-])OCC[N+](C)(C)C [PC(32:3)]
13,210.4 Å²,NCC(=O)N[C@@H](CCCN=C(N)N)C(=O)NCC(=O)N[C@@H](CC(=O)O)C(=O)N[C@@H](CO)C(=O)O [GRGDS]
14,241.7 Å²,CCCC=CCC=CCC=CCC(=O)OC[C@H](COP(=O)(O)OCCN)OC(=O)CC=CCC=CCC=CCCC [PE(26:6)]

# Same assay, conditions: [M+Na-H2O]+; instrument: DT; stepped-field
row,collision cross section (N2),Compound
1,244.9 Å²,CC(=O)NC1C(OC2C(O)C(CO)OC(OC3C(CO)OC(O)C(O)C3O)C2O)OC(CO)C(O)C1OC1OC(CO)C(O)C(O)C1O (stereo not given) [HexNAc-(Hex)3]
2,262 Å² and 263.1 Å²,CC(=O)NC1C(OC2C(O)C(CO)OC(OC(C(O)CO)C(OC3OC(C)C(O)C(O)C3O)C(O)C=O)C2O)OC(CO)C(O)C1OC1OC(CO)C(O)C(O)C1O (stereo not given) [HexNAc-Fuc-(Hex)3]

# Same assay, conditions: [M+Na]+; instrument: DT; stepped-field
row,collision cross section (N2),Compound
1,365.1 Å² and 373.8 Å²,OCC1OC(OC2C(CO)OC(OC3C(CO)OC(OC4C(CO)OC(OC5C(CO)OC(OC6C(CO)OC(OC7C(CO)OC(OC8C(CO)OC(OC9C(CO)OC(OC%10C(CO)OC(O)C(O)C%10O)C(O)C9O)C(O)C8O)C(O)C7O)C(O)C6O)C(O)C5O)C(O)C4O)C(O)C3O)C(O)C2O)C(O)C(O)C1O (stereo not given) [(Hex)10]
2,304.7 Å²,CC/C=C\C/C=C\C/C=C\C/C=C\C/C=C\CCCC(=O)OC[C@H](COP(=O)(O)OC[C@H](N)C(=O)O)OC(=O)CCCCCCCCCCC/C=C\C/C=C\CCCCC [PS(42:7)]
3,293.8 Å²,CCCCCCCCCCCCC=CC[C@@H](O)[C@H](CO[C@@H]1O[C@H](CO)[C@@H](O)C(O)C1O)NC(=O)CCCCCCCCCCCCCCCCCCC (stereo not given in full) [GlcCer(38:1)]
4,281.9 Å²,CC/C=C\C/C=C\C/C=C\C/C=C\CCCCC(=O)O[C@H](COC(=O)CCC/C=C\C/C=C\C/C=C\C/C=C\CCCCC)COP(=O)(O)OCCN [PE(38:8)]
5,310.7 Å²,CCCCCCCCCCCCC=CC[C@@H](O)[C@H](CO[C@@H]1O[C@H](CO)[C@@H](O)C(O)C1O)NC(=O)CC=CCC=CCCCCCCCCCCCCCCCCCCC (stereo not given in full) [GlcCer(44:3)]
6,290.8 Å²,CC/C=C\C/C=C\C/C=C\C/C=C\C/C=C\CCCC(=O)O[C@H](COC(=O)CCCCCCCCC/C=C\C/C=C\CCCCC)COP(=O)(O)OCCN [PE(40:7)]
7,281.7 Å²,CCCCCCCCCCCCCCCC(=O)N[C@@H](CO[C@@H]1O[C@H](CO)[C@@H](O)C(O)C1O)[C@H](O)CCCCCCCCCCCCCCC (stereo not given in full) [GlcCer(34:0)]
8,276.3 Å²,CC/C=C\C/C=C\C/C=C\C/C=C\CCCCC(=O)O[C@H](COC(=O)CCCCCCC/C=C\C/C=C\CCCCC)COP(=O)(O)OCCN [PE(36:6)]
9,301.5 Å²,CC/C=C\C/C=C\C/C=C\C/C=C\C/C=C\CCCC(=O)OC[C@H](COP(=O)([O-])OCC[N+](C)(C)C)OC(=O)CCC/C=C\C/C=C\C/C=C\C/C=C\C/C=C\CC [PC(40:10)]
10,295.9 Å²,CCCC=CCC=CCC=CCC=CCC=CCC(=O)OC[C@H](COP(=O)(O)OCC[N+](C)(C)C)OC(=O)CC=CCC=CCC=CCC=CCC=CCCC [PC(38:10)]
11,291.2 Å² and 306.3 Å²,CC(=O)N[C@H]1[C@H](OC2[C@@H](O)[C@H](O[C@@H]([C@H](O[C@@H]3O[C@@H](C)[C@@H](O)[C@@H](O)[C@@H]3O)[C@@H](O)C=O)[C@H](O)CO)O[C@H](CO)[C@@H]2O)O[C@H](CO)[C@@H](O[C@@H]2O[C@@H](C)[C@@H](O)[C@@H](O)[C@@H]2O)[C@@H]1O[C@@H]1O[C@H](CO)[C@H](O)[C@H](O)[C@H]1O (stereo not given in full) [Lacto-N-Difucohexaose II]
12,278.2 Å²,CCCC/C=C\CCCCCCCC(=O)OC[C@H](COP(=O)(O)OCCN)OC(=O)CCCCC/C=C\C/C=C\C/C=C\C/C=C\CCCCC [PE(36:5)]
13,244 Å²,CC(=O)NC1C(OC2C(O)C(CO)OC(OC3C(CO)OC(O)C(O)C3O)C2O)OC(CO)C(O)C1OC1OC(CO)C(O)C(O)C1O (stereo not given) [HexNAc-(Hex)3]
14,293.1 Å²,CC/C=C\C/C=C\C/C=C\C/C=C\C/C=C\C/C=C\CCC(=O)OC[C@H](COP(=O)(O)OC[C@H](N)C(=O)O)OC(=O)CCCCCCC/C=C\CCCCCCC [PS(39:7)]
15,275.9 Å²,CC/C=C\C/C=C\C/C=C\C/C=C\CCCCC(=O)O[C@H](COCCCCCCCCCCCCCCCC)COP(=O)(O)OCCN [PE(o34:4)]
16,208.2 Å²,NCC(=O)N[C@@H](CCCN=C(N)N)C(=O)NCC(=O)N[C@@H](CC(=O)O)C(=O)N[C@@H](CO)C(=O)O [GRGDS]
17,299.7 Å²,CC/C=C\C/C=C\C/C=C\C/C=C\C/C=C\C/C=C\CCC(=O)OC[C@H](COP(=O)(O)OC[C@H](N)C(=O)O)OC(=O)CC/C=C\C/C=C\C/C=C\C/C=C\C/C=C\C/C=C\CC [PS(44:12)]
18,286.8 Å²,CCCCCCCCCCCCC=CC[C@@H](O)[C@H](CO[C@@H]1O[C@H](CO)[C@@H](O)C(O)C1O)NC(=O)CCCCCCCCCCCCCCCCCC (stereo not given in full) [GlcCer(37:1)]

# Same assay, conditions: [M]+; instrument: DT; stepped-field
row,collision cross section (N2),Compound
1,256.6 Å²,CCCCCCCC[N+](CCCCCCCC)(CCCCCCCC)CCCCCCCC [TAA8]
2,361.5 Å²,CCCCCCCCCCCCCCCC[N+](CCCCCCCCCCCCCCCC)(CCCCCCCCCCCCCCCC)CCCCCCCCCCCCCCCC [TAA16]
3,213.5 Å²,CCCCCC[N+](CCCCCC)(CCCCCC)CCCCCC [TAA6]
